Where a name gives a salt, the structure may show the parent alone.
Experiments:
Format in all cases: physicochemical
[1] = Evaluation of hygroscopicity: water content by Karl Fisher method under various humidity conditions; conditions: 25° C.
[2] = Thermal stability in a solid state, acceleration test at 60° C. (HPLC content)
Procedure: High Performance Liquid Chromatography (HPLC) analysis was conducted under the following conditions:
Detector: UV absorption (237 nm)
Column: Octadesyl silica gel C18 (4.6 mm×150 mm, 5 μm)
Mobile phase: Potassium dihydrogen phosphate monobasic (0.03 M): Methanol=4:6 (by volume)

[3] = Stability in a liquid state (distilled water, 25° C., 4 weeks, protected from light); conditions: dissolved in distilled water, 4 weeks at 25° C.
Excerpt: The observation was made under the same conditions as in the HPLC analysis for evaluating the thermal stability of samples in a solid state.

[4] = Evaluation of photostability (exposed to sunlight at 25° C. for 4 weeks, HPLC content); conditions: for Colour of the surface after exposure to light: white at initial stage, exposed to sunlight at 25° C., 4 weeks; for Content (HPLC): stored at 25° C. for 4 weeks with light exposure
Procedure: To evaluate photostability, a change in the content (%, HPLC) of each sample was observed under the same HPLC analysis conditions as in the evaluation of thermal stability. Photostability is quite an important factor in therapeutic agents for treating hypertension because they are administered to patients over a prolonged period of dosage.

Row | SMILES | Water content (Karl Fisher method) ([1]; initial stage) [%] | Water content (Karl Fisher method) ([1]; relative humidity 25%, 1 week) [%] | Water content (Karl Fisher method) ([1]; relative humidity 60%, 1 week) [%] | Water content (Karl Fisher method) ([1]; relative humidity 75%, 1 week) [%] | Water content (Karl Fisher method) ([1]; relative humidity 95%, 1 week) [%] | Content (HPLC) ([2]; 60° C., 1 week) [%] | Content (HPLC) ([2]; 60° C., 2 weeks) [%] | Content (HPLC) ([2]; 60° C., 4 weeks) [%] | Content (HPLC) ([2]; initial stage) [%] | Change in the content (HPLC) [3] | Decomposed products [3] | Colour of the surface after exposure to light [4] | Content (HPLC) [4] [%]
1 | CCOC(=O)C1=C(COCCN)NC(C)=C(C(=O)OC)C1c1ccccc1Cl (stereo not drawn) [Adipic acid salt, crystalline adipic acid salt of amlodipine] | 0.10 | 0.10 | 0.10 | 0.14 | 0.16 | 99.8 | 99.7 | 99.7 | 99.8 | no significant changes in the content | no decomposed products | remained white | 
2 | CCOC(=O)C1=C(COCCN)NC(C)=C(C(=O)OC)C1c1ccccc1Cl (stereo not drawn) [Besylate salt, Amlodipine Besylate, reference compound] | 0.14 | 0.10 | 0.09 | 0.15 | 0.17 | 99.6 |  |  | 99.6 | no significant changes in the content | no decomposed products | turned yellow | 82.5
3 | CCOC(=O)C1=C(COCCN)NC(C)=C(C(=O)OC)C1c1ccccc1Cl (stereo not drawn) [Tosylate salt, Amlodipine p-Toluene Sulfonate] |  |  |  |  |  |  |  |  |  |  |  |  | 72.0

From patent US7015238B2, “Crystalline organic acid salt of amlodipine” (CJ Corp., priority 2002, dated 2006)
